# Like-named read-outs stand apart in the source and are kept apart here.
# What was measured:
# [1] = Determination of aqueous solubility; assay type: physicochemical; conditions: aqueous medium, aqueous buffer, thermodynamic from solid, pH 7.4, agitation 24 h, 20° C., HPLC
# Method: The aqueous solubility of each compound was measured at pH 7.4. It was measured using HPLC on the supernatants obtained by centrifugation after saturation of the media with excess compound after an agitation time of 24 h and at a temperature of 20° C. The preparation and treatment of the samples was robotized.
# [2] = Pharmacokinetic parameters in mice; assay type: in vivo, balb/c mice; conditions: for AUC(0-inf) / AUC(0-t) / Cmax / half-life: mouse, balb/c mice, intravenous route, 10 mg/kg, plasma; for half-life: read-out: t½ (converted)
# Method: The pharmacokinetic behaviour of compounds is a pre-requisite for reasonable use thereof in in vivo experimentation. The compounds were given in DMSO solution via intravenous route (IV) or oral route (PO) to balb/c mice. Blood samples were taken at times ranging from 5 minutes to 6 hours, the plasmas were collected and the concentration of the compounds in each sample was assayed by LC/MS/MS. The data obtained allowed the plotting of time-concentration curves and determination of fundamental parameters such as plasma half-life of the compound (T½), area under curve at a given time (AUCt) and the maximum concentration obtained (Cmax).
# [3] = system: HL-60/R10; assay: Cytotoxicity test (ViaLight Plus cell proliferation) on HL-60/R10; assay type: cell-based, human; conditions: doxorubicin-resistant line, 72 hours' incubation, cell viability vs 0.5% DMSO control, read-out: EC50 HL60/R10; for IC50: HL-60, 72 h
# Text: (§1) The effects of the compounds of the invention on the proliferation of cancer cells were studied on different human cancer cell lines of different tissue origin (MCF-7: breast cancer, MCF-7/adr adriamycin-resistant breast cancer, HL-60: acute promyelocytic leukaemia, HL-60/R10: doxorubicin-resistant acute promyelocytic leukaemia, HT29: colon adenocarcinoma, Mia Paca2: pancreatic tumour, Panc-1: pancreatic exocrine tumour, SK-OV-3: cisplatin- and adriamycin resistant ovarian cancer). The cancer cells used for this study were incubated at 37° C. in the presence of one of the compounds of the invention added to the culture medium at different concentrations.
# (§2) The cancer cell lines were obtained from ATCC (American Type Culture Collection) for MCF-7, from Hôpital de la Pitié Salpetrière for MCF-7/adr and from Oncodesign (Dijon, France) for HL-60, HL-60/R10, HT29, MiaPaCa2, Panc-1 and SK-OV-3. They were cultured in RPMI 1640 medium containing 2 mM L-Glutamine supplemented with 10% foetal calf serum (Lonza; Verviers, Belgium). All the cell lines were held in culture at 37° C. in a humid atmosphere containing 5% CO2. Cell proliferation was assessed using the ViaLight® Plus Assay Kit (Lonza; Verviers, Belgium) following the manufacturer's instructions. The cells were seeded in 96-well culture plates compatible with luminescence read-off (white plates with transparent bottom) in a proportion of 5 000 to 10 000 cells per well in 100 μl of culture medium. After a pre-incubation time of 24 hours at 37° C., the compounds of the invention dissolved in dimethylsulfoxide (DMSO) were individually added to each well in a proportion of 0.5 μl per well. After 72 hours' incubation at 37° C. in a humid atmosphere containing 5% CO2, 50 μl of lysis buffer were added to each well and 15 minutes later 100 μl of ATP measuring agent were added. The plates were read under a luminometer to evaluate cell viability. The data obtained was processed by computer to obtain the EC50 value i.e. the concentration value of each of the compounds which induces 50% cell viability compared with a control value (0.5% DMSO alone).
# [4] = system: Panc-1; assay: Cytotoxicity test (ViaLight Plus cell proliferation) on Panc-1; assay type: cell-based, human; conditions: 72 hours' incubation, cell viability; for IC50: Homo sapiens, PANC-1, read-out: EC50 Panc-1
# Text: as §1, §2
# [5] = system: HL-60; assay: Cytotoxicity test (ViaLight Plus cell proliferation) on HL-60; assay type: cell-based, human; conditions: 72 hours' incubation, cell viability vs 0.5% DMSO control; for IC50: HL-60, 72 h, read-out: EC50 HL-60
# Text: as §1, §2
# [6] = system: MCF-7; assay: Cytotoxicity test (ViaLight Plus cell proliferation) on MCF-7; assay type: cell-based, human; conditions: 72 hours' incubation, cell viability vs 0.5% DMSO control; for IC50: Homo sapiens, MCF7, 72 h, read-out: EC50 MCF-7
# Text: as §1, §2
# [7] = system: SK-OV-3; assay: Cytotoxicity test (ViaLight Plus cell proliferation) on SK-OV-3; assay type: cell-based, human; conditions: cisplatin- and adriamycin resistant line, 72 hours' incubation, cell viability; for IC50: Homo sapiens, SK-OV-3, read-out: EC50 SK-OV-3
# Text: as §1, §2
# [8] = system: Mia PaCa2; assay: Cytotoxicity test (ViaLight Plus cell proliferation) on Mia PaCa2; assay type: cell-based, human; conditions: 72 hours' incubation, cell viability; for IC50: Homo sapiens, MIA PaCa-2, read-out: EC50 Mia PaCa2
# Text: as §1, §2
# [9] = system: MCF-7/adr; assay: Cytotoxicity test (ViaLight Plus cell proliferation) on MCF-7/adr; assay type: cell-based, human; conditions: adriamycin-resistant line, 72 hours' incubation, cell viability vs 0.5% DMSO control; for IC50: Homo sapiens, NCI/ADR-RES, 72 h, read-out: EC50 MCF-7/adr
# Text: as §1, §2
# [10] = system: HT29; assay: Cytotoxicity test (ViaLight Plus cell proliferation) on HT29; assay type: cell-based, human; conditions: 72 hours' incubation, cell viability; for IC50: Homo sapiens, HT-29, read-out: EC50 HT29
# Text: as §1, §2
compound,measurement,setting,value
CC(C)[C@H]1CN(C(=O)C(c2cccs2)N(C(=O)CCl)c2ccc(Oc3ccccc3)cc2)CCN1 (some centres unmarked),solubility at 24 h,[1],0.05 mg/mL
Cc1cc(Oc2ccccc2)ccc1N(C(=O)CCl)C(C(=O)N1CC(C)NC(C)C1)c1cccs1.Cl (centres unmarked),AUC(0-inf),[2],3.84 µg·h/mL
same,AUC(0-t),[2],3.29 µg·h/mL
same,Cmax,[2],3.8 µg/mL
same,half-life,[2],2.64 h
Cc1cc(Oc2ccccc2)ccc1N(C(=O)CCl)C(C(=O)N1CCN[C@@H](C)C1)c1cccs1.Cl (some centres unmarked),AUC(0-inf),[2],2.06 µg·h/mL
same,AUC(0-t),[2],1.68 µg·h/mL
same,Cmax,[2],1.42 µg/mL
same,half-life,[2],2.47 h
"CC(C)[C@H]1CN(C(=O)C(c2ccc(F)cc2)N(C(=O)CCl)c2ccc(Oc3ccccc3)cc2)CCN1 (single isomer, unassigned) [I-3 dia2]",EC50,[3],0.002 µM
same,IC50,[4],0.001 µM
same,EC50,[5],0.504 µM
same,EC50,[6],0.301 µM
same,IC50,[7],0.001 µM
same,IC50,[8],0.002 µM
same,EC50,[9],0.009 µM
same,IC50,[10],0.001 µM
"Cc1cc(Oc2ccccc2)ccc1N(C(=O)CCl)C(C(=O)N1CCN[C@@H](C(C)C)C1)c1ccc(F)cc1 (single isomer, unassigned) [I-7 dia2]",EC50,[3],0.026 µM
same,IC50,[4],0.005 µM
same,EC50,[5],1.94 µM
same,EC50,[6],1.95 µM
same,IC50,[7],0.007 µM
same,IC50,[8],0.013 µM
same,EC50,[9],0.098 µM
same,IC50,[10],0.008 µM
"Cc1cc(Oc2ccccc2)ccc1N(C(=O)CCl)C(C(=O)N1CCN[C@@H](C)C1)c1cccs1 (single isomer, unassigned) [I-43 dia2]",IC50,[3]; Homo sapiens,0.02 µM
same,IC50,[4],0.007 µM
same,IC50,[5]; Homo sapiens,1.89 µM
same,IC50,[6],1.42 µM
same,IC50,[7],0.009 µM
same,IC50,[8],0.018 µM
same,bioavailability in a mouse,"[2]; IV 10 mg/kg or PO 30 mg/kg, FIG. 1",good bioavailability
same,IC50,[9],0.126 µM
same,IC50,[10],0.01 µM
"Cc1cc(Oc2ccccc2)ccc1N(C(=O)CCl)C(C(=O)N1CCN[C@@H](C(C)C)C1)c1cccs1 (single isomer, unassigned; dia2) [I-46 dia2]",EC50,[3],0.01 µM
same,EC50,[4],0.004 µM
same,EC50,[5],0.449 µM
same,EC50,[6],1.18 µM
same,EC50,[7],0.006 µM
same,EC50,[8],0.01 µM
same,EC50,[9],0.058 µM
same,EC50,[10],0.006 µM
"CC(C)[C@H]1CN(C(=O)C(c2cccs2)N(C(=O)CCl)c2cccc(C(F)(F)F)c2)CCN1 (single isomer, unassigned; dia2) [I-50 dia2]",EC50,[3],0.008 µM
same,EC50,[4],0.009 µM
same,EC50,[5],0.841 µM
same,EC50,[7],0.011 µM
same,EC50,[8],2.2 µM
same,EC50,[10],0.009 µM
CC[C@H]1CN(C(=O)C(c2cccs2)N(C(=O)CCl)c2ccc(Oc3ccccc3)cc2)CCN1 (some centres unmarked) [Example I-39],IC50,[3]; Homo sapiens,0.009 µM
same,IC50,[5]; Homo sapiens,1.81 µM
same,IC50,[6],0.776 µM
same,IC50,[9],0.052 µM
C[C@H]1CN(C(=O)C(c2cccs2)N(C(=O)CCl)c2ccc(Oc3ccccc3)cc2)CCN1.Cl (some centres unmarked) [Example I-58],IC50,[3]; Homo sapiens,0.011 µM
same,EC50,"[3]; Homo sapiens, HL-60",0.011 µM
same,IC50,[5]; Homo sapiens,1.06 µM
same,EC50,"[5]; Homo sapiens, HL-60",1.06 µM
same,IC50,[6],0.87 µM
same,solubility at 24 h,[1],0.203 mg/mL
same,IC50,[9],0.088 µM
C[C@@H]1CN(C(=O)C(c2cccs2)N(C(=O)CCl)c2ccc(Oc3ccccc3)cc2)CCN1.Cl (some centres unmarked) [Example I-59],IC50,[3]; Homo sapiens,0.016 µM
same,EC50,"[3]; Homo sapiens, HL-60",0.016 µM
same,IC50,[5]; Homo sapiens,0.956 µM
same,IC50,[6],0.745 µM
same,solubility at 24 h,[1],0.152 mg/mL
same,IC50,[9],0.106 µM
Cl.O=C(C(c1cccs1)N(C(=O)CCl)c1ccc(Oc2ccccc2)cc1)N1CCNCC1 (centres unmarked) [reference compound],IC50,[3]; Homo sapiens,0.021 µM
same,IC50,[5]; Homo sapiens,0.579 µM
same,solubility at 24 h,[1],0.068 mg/mL
C[C@H]1CNCCN1C(=O)C(c1cccs1)N(C(=O)CCl)c1ccc(Oc2ccccc2)cc1.Cl (some centres unmarked) [reference compound],IC50,[3]; Homo sapiens,0.065 µM
same,IC50,[5]; Homo sapiens,0.662 µM
same,solubility at 24 h,[1],0.105 mg/mL
Cc1cc(Oc2ccccc2)ccc1N(C(=O)CCl)C(C(=O)N1CCNCC1)c1cccs1.Cl (centres unmarked) [reference compound],AUC(0-inf),[2],1.32 µg·h/mL
same,AUC(0-t),[2],1.28 µg·h/mL
same,Cmax,[2],1.47 µg/mL
same,half-life,[2],1.38 h
tert-butyl ester of 4-[2-[(2-chloro-acetyl)-(4-phenoxy-phenyl)-amino]-2-(4-fluoro-phenyl)-acetyl]-(S)-2-isopropyl-piperazine-1-carboxylic acid [I-1 dia2],EC50,[3],0.023 µM
same,EC50,[5],0.824 µM
same,EC50,[6],1.3 µM
same,EC50,[9],0.039 µM
tert-butyl ester of 4-[-2-[(2-chloro-acetyl)-(4-phenoxy-phenyl)-amino]-2-(4-fluoro-phenyl)-acetyl]-(R)-2-isopropyl-piperazine-1-carboxylic acid [I-2 dia1],EC50,[3],0.04 µM
same,EC50,[5],0.728 µM
same,EC50,[6],2.09 µM
same,EC50,[9],0.049 µM
